Results: PMC7756582, “Prodrugs of γ‐Alkyl‐Modified Nucleoside Triphosphates: Improved Inhibition of HIV Reverse Transcriptase” (Angewandte Chemie (International Ed. in English), 2020)

Tested on: pig liver esterase (PLE)
Assay: Enzymatic hydrolysis with pig liver esterase (PLE)
Type: in vitro ADME
Conditions: pH 7.3, 37 °C; for half-life at 0.45 mM: pig liver esterase (PLE) in PBS, pig liver esterase in PBS, read-out: t 1/2 with PLE (cleavage of acyloxybenzyl masking unit); for cleavage of the alkyl residue by esterase: PLE in PBS
Protocol: Next, the enzymatic stability of prodrugs γ‐(AB‐C4,alkyl‐C18)‐d4TTP 6 cz and γ‐(AB‐C15,alkyl‐C4)‐d4TTP 6 ew was examined by incubation with PLE, which is used as a model enzyme for studying the esterase activation of the prodrugs, in PBS, pH 7.3 at 37 °C. […] This proves our initial concept of introducing an enzyme (esterase)‐stable group to the γ‐phosphate unit.
ProLab 300 from Schott Co.. Thermomixer: Eppendorf Thermomixer 5436 and CellMedia Thermoschüttler basic were used.
Fluorescent Imager: ChemiDoc™ MP Imaging System (170-8280) from Bio-Rad Co. was used for primer extension study.
Electrophoresis: Thermo Fisher OwlTM S4S Aluminum-Backed Sequencer System. Power supply: Consort EV2230 Gel […]
Further aliquots were taken for monitoring the kinetic hydrolysis. The exponential decay curves (pseudo-first order) based on absolute integral values were calculated with commercially available software (OriginPro 9.0G) and yielded the half-lives t1/2 of the prodrugs via one determination.
Enzymatic hydrolysis of compounds 6,7 with pig liver esterase (PLE):
10 µL 50 mM DMSO stock solution of compounds 6,7 was diluted to 6.0 mM hydrolysis solution by addition of 31.7 µL DMSO and 41.7 µL ultrapure water. Then 83.3 µl of the 6.0 mM solution was diluted with 125 µL DMSO and 833 µl 50 mM PBS buffer (pH 7.3).
The reaction was started by addition of 62.5 µl of PLE in PBS buffer (3 mg/mL) and the mixture was incubated with 800 rpm at 37 °C in a thermomixer. At different times, aliquots (100 µl) were taken and the reaction was stopped by addition to […] MeOH. The mixture was kept for 5 min on ice followed by centrifugation for 5 min (13000 rpm). The mixture was filtered (Chromafil RC-20/15 MS, […]) and stored in liquid nitrogen. When testing, the samples were defrosted and injection volume with 80 µL was used for HPLC […]
The calculation of t1/2 was performed analogously to that for the chemical hydrolysis studies.
Preparation of cell extracts: Human CD4+ T-lymphocyte CEM cells were grown in RPMI-1640-based cell culture medium to a final density of ~3·10^6 cells/ml. Then, cells were centrifuged for 10 min at 1,250 rpm at 4 °C, washed twice with cold PBS, and the pellet was re-suspended at 10^8 cells/ml and sonicated (Hielscher Ultrasound Techn., 100% amplitude, 3·times for 10 sec) to destroy cell integrity. The resulting cell suspension was then centrifuged at 10,000 rpm to remove cell debris, and the supernatant divided in aliquots before being frozen at -80 C and used.
(1 picture or pasted object on this page, not shown here)

SMILES	half-life at 0.45 mM [min]	cleavage of the alkyl residue by esterase
CCCCCCCCCCCCCCCCCCOP(=O)(OCc1ccc(OC(=O)CCCC)cc1)OP(=O)(O)OP(=O)(O)OCC1C=CC(n2cc(C)c(=O)[nH]c2=O)O1 (stereo not shown) [6 cz, γ‐(AB‐C4,alkyl‐C18)‐d4TTP]	8.1	
CCCCCCCCCCCCCCCC(=O)Oc1ccc(COP(=O)(OCCCC)OP(=O)(O)OP(=O)(O)OCC2C=CC(n3cc(C)c(=O)[nH]c3=O)O2)cc1 (stereo not shown) [6 ew, γ‐(AB‐C15,alkyl‐C4)‐d4TTP]	25.5	
CCCCOP(=O)(O)OP(=O)(O)OP(=O)(O)OCC1C=CC(n2cc(C)c(=O)[nH]c2=O)O1 (stereo not shown) [7 w, γ‐C4‐d4TTP]		no cleavage of the alkyl residue
CCCCCCCCCCCCCCCCCCOP(=O)(O)OP(=O)(O)OP(=O)(O)OCC1C=CC(n2cc(C)c(=O)[nH]c2=O)O1 (stereo not shown) [7 z, γ‐C18‐d4TTP]		no cleavage of the alkyl residue
